Patent US11274332B2, “Methods of administering 3,4-diaminopyridine” (SERB SA, priority 2011, dated 2022)

Experiment: Food-effect crossover study, adverse events after single 20 mg amifampridine phosphate in healthy subjects (Examples 10, 11)
Type: in vivo
Procedure: This was a randomized, open-label, 2-treatment, 2-period crossover study with 44 completed subjects to assess the safety, tolerability, and the effect of food on the relative bioavailability of a single dose of amifampridine phosphate.
Safety was evaluated for all subjects who take at least one dose of 3,4-DAP. Safety was evaluated by recording the incidence of adverse events (AEs), physical examination, vital signs, concomitant medications, clinical laboratory assessments, and 12-lead electrocardiogram (ECG).
Analysis for the following safety parameters was carried out on the Safety Population: AEs which included all AEs, AEs by severity, drug-related AEs, deaths, SAEs, AEs leading to study discontinuation, and most frequent AEs, standard clinical laboratory tests, vital signs, ECG measurements, routine physical examinations, and prior and concomitant medications. The cut-off for frequency of AEs reported was determined based on the data. No formal statistical testing was performed for the safety analyses; only descriptive statistics were provided. Appropriate descriptive statistics for the safety data were determined using SAS Version 9.2.
AEs were coded according to the Medical Dictionary for Regulatory Activities (MedDRA; Version 13.0). […] The occurrence of AEs was assessed continuously from the time the subject signed the VID and consent. The reporting period for non-serious AEs was from the first dose to the final study visit. The investigator determined the severity of each event and the relationship of an AE to the IP and recorded it on the source documents and AE CRF. The nature, time of onset, duration, severity, and relationship to study drug was documented, including documentation of investigator assessment and review. All events were assessed to determine if the AE was serious.
The Investigator determined the severity of each event and the event was recorded on the source documents and AE CRF. A coding of “mild” meant there was no limitation of usual activities, “moderate” meant there was some limitation of usual activities, “severe” meant there was an inability to carry out usual activities.
The reporting period for AEs that met the criteria of an SAE began from the time of signing the VID and consent form through follow-up or early termination. […] Clinical Laboratory Assessments

Nc1ccncc1N.O=P(O)(O)O [amifampridine phosphate, 3,4-diaminopyridine phosphate]
Paraesthesia, drug-related AE: subjects (Male N=31): 6
Possibly or probably related AEs, Mild: % of subjects (Male N=31): 58%
Possibly or probably related AEs, Mild: events (Male N=31): 51
Possibly or probably related AEs, Mild: subjects (Male N=31): 18
Possibly or probably related AEs, Moderate: % of subjects (Male N=31): (0%) [0]
Possibly or probably related AEs, Moderate: events (Male N=31): (0%) [0]
Possibly or probably related AEs, Moderate: subjects (Male N=31): 0
Possibly or probably related AEs, Severe: % of subjects (Male N=31): (0%) [0]
Possibly or probably related AEs, Severe: events (Male N=31): (0%) [0]
Possibly or probably related AEs, Severe: subjects (Male N=31): 0
Possibly or probably related AEs, Total: % of subjects (Male N=31): 58%
Possibly or probably related AEs, Total: events (Male N=31): 51
Possibly or probably related AEs, Total: subjects (Male N=31): 18
Serious adverse events: % of subjects (Male N=31): (0%) [0]
Serious adverse events: events (Male N=31): (0%) [0]
Serious adverse events: subjects (Male N=31): 0
Skin and Subcutaneous Tissue Disorders Total, drug-related AE: % of subjects (Male N=31): 3%
Skin and Subcutaneous Tissue Disorders Total, drug-related AE: events (Male N=31): 1
Skin and Subcutaneous Tissue Disorders Total, drug-related AE: subjects (Male N=31): 1
Vascular Disorders Total, drug-related AE: % of subjects (Male N=31): (0%) [0]
Vascular Disorders Total, drug-related AE: events (Male N=31): (0%) [0]
Vascular Disorders Total, drug-related AE: subjects (Male N=31): 0
paraesthesias among the 93 drug-related AEs: % of events (Overall): 54%
paraesthesias among the 93 drug-related AEs: events (Overall): 50
Abdominal Pain Upper, drug-related AE: % of subjects (Overall N=47): 4%
Abdominal Pain Upper, drug-related AE: events (Overall N=47): 2
Abdominal Pain Upper, drug-related AE: subjects (Overall N=47): 2
Abdominal Pain, drug-related AE: % of subjects (Overall N=47): 6%
Abdominal Pain, drug-related AE: events (Overall N=47): 3
Abdominal Pain, drug-related AE: subjects (Overall N=47): 3
Abdominal Tenderness, drug-related AE: % of subjects (Overall N=47): 2%
Abdominal Tenderness, drug-related AE: events (Overall N=47): 1
Abdominal Tenderness, drug-related AE: subjects (Overall N=47): 1
Acne, drug-related AE: % of subjects (Overall N=47): 2%
Acne, drug-related AE: events (Overall N=47): 1
Acne, drug-related AE: subjects (Overall N=47): 1
All treatment emergent AEs, Mild: % of subjects (Overall N=47): 64%
All treatment emergent AEs, Mild: events (Overall N=47): 98
All treatment emergent AEs, Mild: subjects (Overall N=47): 30
All treatment emergent AEs, Moderate: % of subjects (Overall N=47): 4%
All treatment emergent AEs, Moderate: events (Overall N=47): 2
All treatment emergent AEs, Moderate: subjects (Overall N=47): 2
All treatment emergent AEs, Severe: % of subjects (Overall N=47): 2%
All treatment emergent AEs, Severe: events (Overall N=47): 1
All treatment emergent AEs, Severe: subjects (Overall N=47): 1
All treatment emergent AEs, Total: events (Overall N=47): 101
All treatment emergent AEs, Total: subjects (Overall N=47): 31
Constipation, drug-related AE: % of subjects (Overall N=47): 2%
Constipation, drug-related AE: events (Overall N=47): 1
Constipation, drug-related AE: subjects (Overall N=47): 1
Diarrhoea, drug-related AE: % of subjects (Overall N=47): 2%
Diarrhoea, drug-related AE: events (Overall N=47): 1
Diarrhoea, drug-related AE: subjects (Overall N=47): 1
Discontinued due to adverse events: % of subjects (Overall N=47): 2%
Discontinued due to adverse events: events (Overall N=47): 1
Discontinued due to adverse events: subjects (Overall N=47): 1
Dizziness, drug-related AE: % of subjects (Overall N=47): 11%
Dizziness, drug-related AE: events (Overall N=47): 7
Dizziness, drug-related AE: subjects (Overall N=47): 5
Dysgeusia, drug-related AE: % of subjects (Overall N=47): 4%
Dysgeusia, drug-related AE: events (Overall N=47): 3
Dysgeusia, drug-related AE: subjects (Overall N=47): 2
Fatigue, drug-related AE: % of subjects (Overall N=47): 9%
Fatigue, drug-related AE: events (Overall N=47): 4
Fatigue, drug-related AE: subjects (Overall N=47): 4
Feeling Hot, drug-related AE: % of subjects (Overall N=47): 2%
Feeling Hot, drug-related AE: events (Overall N=47): 1
Feeling Hot, drug-related AE: subjects (Overall N=47): 1
Flushing, drug-related AE: % of subjects (Overall N=47): 2%
Flushing, drug-related AE: events (Overall N=47): 1
Flushing, drug-related AE: subjects (Overall N=47): 1
Gastrointestinal Disorders Total, drug-related AE: % of subjects (Overall N=47): 19%
Gastrointestinal Disorders Total, drug-related AE: events (Overall N=47): 12
Gastrointestinal Disorders Total, drug-related AE: subjects (Overall N=47): 9
General Disorders and Administration Site Conditions Total, drug-related AE: % of subjects (Overall N=47): 11%
General Disorders and Administration Site Conditions Total, drug-related AE: events (Overall N=47): 5
General Disorders and Administration Site Conditions Total, drug-related AE: subjects (Overall N=47): 5
Headache, drug-related AE: % of subjects (Overall N=47): 11%
Headache, drug-related AE: events (Overall N=47): 5
Headache, drug-related AE: subjects (Overall N=47): 5
Hypoaesthesia Facial, drug-related AE: % of subjects (Overall N=47): 2%
Hypoaesthesia Facial, drug-related AE: events (Overall N=47): 1
Hypoaesthesia Facial, drug-related AE: subjects (Overall N=47): 1
Hypoaesthesia Oral, drug-related AE: % of subjects (Overall N=47): 11%
Hypoaesthesia Oral, drug-related AE: events (Overall N=47): 6
Hypoaesthesia Oral, drug-related AE: subjects (Overall N=47): 5
Hypoaesthesia, drug-related AE: % of subjects (Overall N=47): 4%
Hypoaesthesia, drug-related AE: events (Overall N=47): 2
Hypoaesthesia, drug-related AE: subjects (Overall N=47): 2
Nausea, drug-related AE: % of subjects (Overall N=47): 9%
Nausea, drug-related AE: events (Overall N=47): 4
Nausea, drug-related AE: subjects (Overall N=47): 4
Nervous System Disorders Total, drug-related AE: % of subjects (Overall N=47): 57%
Nervous System Disorders Total, drug-related AE: events (Overall N=47): 74
Nervous System Disorders Total, drug-related AE: subjects (Overall N=47): 27
Paraesthesia Oral, drug-related AE: % of subjects (Overall N=47): 43%
Paraesthesia Oral, drug-related AE: events (Overall N=47): 30
Paraesthesia Oral, drug-related AE: subjects (Overall N=47): 20
Paraesthesia, drug-related AE: % of subjects (Overall N=47): 26%
Paraesthesia, drug-related AE: events (Overall N=47): 20
Paraesthesia, drug-related AE: subjects (Overall N=47): 12
Possibly or probably related AEs, Mild: % of subjects (Overall N=47): 64%
Possibly or probably related AEs, Mild: events (Overall N=47): 92
Possibly or probably related AEs, Mild: subjects (Overall N=47): 30
Possibly or probably related AEs, Moderate: % of subjects (Overall N=47): 2%
Possibly or probably related AEs, Moderate: events (Overall N=47): 1
Possibly or probably related AEs, Moderate: subjects (Overall N=47): 1
Possibly or probably related AEs, Severe: % of subjects (Overall N=47): (0%) [0]
Possibly or probably related AEs, Severe: events (Overall N=47): (0%) [0]
Possibly or probably related AEs, Severe: subjects (Overall N=47): 0
Possibly or probably related AEs, Total: % of subjects (Overall N=47): 64%
Possibly or probably related AEs, Total: events (Overall N=47): 93
Possibly or probably related AEs, Total: subjects (Overall N=47): 30
Serious adverse events: % of subjects (Overall N=47): (0%) [0]
Serious adverse events: events (Overall N=47): (0%) [0]
Serious adverse events: subjects (Overall N=47): 0
Skin and Subcutaneous Tissue Disorders Total, drug-related AE: % of subjects (Overall N=47): 2%
Skin and Subcutaneous Tissue Disorders Total, drug-related AE: events (Overall N=47): 1
Skin and Subcutaneous Tissue Disorders Total, drug-related AE: subjects (Overall N=47): 1
Vascular Disorders Total, drug-related AE: % of subjects (Overall N=47): 2%
Vascular Disorders Total, drug-related AE: events (Overall N=47): 1
Vascular Disorders Total, drug-related AE: subjects (Overall N=47): 1
safety and tolerability (single oral 20 mg, fed and fasted): safe and well tolerated
deaths or SAEs (whole study): no deaths or SAEs
